The record followed here is patent US5744451A, “N-substituted glutamic acid derivatives with interleukin-1 β converting enzyme inhibitory activity” (Warner-Lambert Company, priority 1996, dated 1998).

The subject of data set [1] is human peripheral blood mononuclear cells (PBMCs). Nature of the data set: Viability of PBMCs by MTT assay. The class given is cell-based. Particulars: compound at 100 μM, additional 4 hours with MTT. From the text: Further evidence that compounds of Formula I are valuable inhibitors of ICE is provided by their ability to inhibit IL-1β production in human peripheral blood mononuclear cells (PBMCs) as described herein. PBMCs are isolated from heparinized blood by centrifugation over a ficoll cushion, then washed three times with phosphate-buffered saline. PBMCs are suspended in a medium containing RPMI 1640 with glutamine, penicillin, streptomycin and 2% human AB serum, then plated at 10^6 cells per well in 96-well flat bottom plates. PBMCs are stimulated overnight with 10 ng/mL of lipopolysaccharide (LPS, E. Coli strain 0111:B4; Calbiochem) in the presence or absence of a compound of Formula I. Medium is harvested and the level of mature IL-1β was determined using an ELISA kit from R & D Systems. Cells were cultured for an additional 4 hours in the presence of 3-(4,5-dimethylthiazol-2-yl)-2,5-diphenyltetrazolium bromide (MTT) to determine viability.
Background: Tetrazolium assays rely on reduction of a dye to a coloured formazan, in cell work by metabolically active cells.

Data set [2] has as its target T1, ICE (interleukin-1β converting enzyme) (Homo sapiens, UniProt P29466).
T1 sequence (P29466 120-297 limits assumed): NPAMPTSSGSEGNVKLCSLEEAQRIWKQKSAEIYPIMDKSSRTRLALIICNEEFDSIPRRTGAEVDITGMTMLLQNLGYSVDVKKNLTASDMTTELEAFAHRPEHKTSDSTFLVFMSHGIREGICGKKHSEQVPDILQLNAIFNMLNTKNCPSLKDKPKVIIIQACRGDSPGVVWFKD
T1 sequence (P29466 317-404 limits assumed): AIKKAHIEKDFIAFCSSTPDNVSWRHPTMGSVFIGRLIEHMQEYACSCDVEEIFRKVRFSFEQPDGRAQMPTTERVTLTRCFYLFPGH
Nature of the data set: ICE inhibition, fluorogenic Ac-Tyr-Val-Ala-Asp-AMC hydrolysis progress curves (Ki and kon). Format: biochemical. Particulars: [I]=2 or 4 μM.
Method: The progress curves are fit to the equation F=F0 +Vf.t+(Vi -Vf) (1-exp(-kobs t))/kobs, where F0 is the initial fluorescence, Vi and Vf are initial and final reaction velocities, and kobs is the pseudo first-order rate of inhibition. Ki is calculated as Ki =SPF.[I]Vf /(Vi -Vf), where the substrate protection factor (SPF) is 1+[S]/Km =17.7. kon is calculated as SPF.kobs /[I].

Structures are written as SMILES. Residues, ends and D or L forms follow the SMILES beside them. Where only a bound is given, the exact number is not on record here.

Broadly, the Ki is a measure of affinity in units of concentration, obtained from inhibition or displacement. What is called kon is the rate constant with which the complex forms.

Turning to `CC(=O)N[C@@H](Cc1ccc(O)cc1)C(=O)N[C@H](C(=O)N[C@@H](C)C(=O)N[C@H](C=O)CCC(=O)O)C(C)C` [Ac-Tyr-Val-Ala-Glu[CHO]] (Ac-YVAE-aldehyde), in data set [1], the “cell viability after treatment (MTT assay)” value is given as over 95%. The Ki in data set [2] (ICE 0.24 nM, 250 μM substrate Ac-Tyr-Val-Ala-Asp-AMC, corrected by SPF 17.7, read-out: Ki against ICE) was 1.8 nM. In data set [2] (kon = SPF.kobs/[I], read-out: kon against ICE), the kon is 17200 M⁻¹ s⁻¹.
